Like-named read-outs stand apart in the source and are kept apart here.
Experiments:
human TLR7 = human TLR7 (Homo sapiens (Human), UniProt Q9NYK1); test: TLR7 inhibition reporter assay (HEK-Blue cells, SEAP reporter, gardiquimod stimulation); type: cell-based
human TLR9 = human TLR9 (Homo sapiens (Human), UniProt Q9NR96); test: TLR9 inhibition reporter assay (HEK-Blue cells, SEAP reporter, ODN2006 stimulation);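 also: compounds tested over 0.05 nM to 50 µM, 22 h incubation, inhibition taken as SEAP signal drop from agonist plus DMSO wells toward a known inhibitor control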
Sequence of human TLR9 (Q9NR96 26-1032): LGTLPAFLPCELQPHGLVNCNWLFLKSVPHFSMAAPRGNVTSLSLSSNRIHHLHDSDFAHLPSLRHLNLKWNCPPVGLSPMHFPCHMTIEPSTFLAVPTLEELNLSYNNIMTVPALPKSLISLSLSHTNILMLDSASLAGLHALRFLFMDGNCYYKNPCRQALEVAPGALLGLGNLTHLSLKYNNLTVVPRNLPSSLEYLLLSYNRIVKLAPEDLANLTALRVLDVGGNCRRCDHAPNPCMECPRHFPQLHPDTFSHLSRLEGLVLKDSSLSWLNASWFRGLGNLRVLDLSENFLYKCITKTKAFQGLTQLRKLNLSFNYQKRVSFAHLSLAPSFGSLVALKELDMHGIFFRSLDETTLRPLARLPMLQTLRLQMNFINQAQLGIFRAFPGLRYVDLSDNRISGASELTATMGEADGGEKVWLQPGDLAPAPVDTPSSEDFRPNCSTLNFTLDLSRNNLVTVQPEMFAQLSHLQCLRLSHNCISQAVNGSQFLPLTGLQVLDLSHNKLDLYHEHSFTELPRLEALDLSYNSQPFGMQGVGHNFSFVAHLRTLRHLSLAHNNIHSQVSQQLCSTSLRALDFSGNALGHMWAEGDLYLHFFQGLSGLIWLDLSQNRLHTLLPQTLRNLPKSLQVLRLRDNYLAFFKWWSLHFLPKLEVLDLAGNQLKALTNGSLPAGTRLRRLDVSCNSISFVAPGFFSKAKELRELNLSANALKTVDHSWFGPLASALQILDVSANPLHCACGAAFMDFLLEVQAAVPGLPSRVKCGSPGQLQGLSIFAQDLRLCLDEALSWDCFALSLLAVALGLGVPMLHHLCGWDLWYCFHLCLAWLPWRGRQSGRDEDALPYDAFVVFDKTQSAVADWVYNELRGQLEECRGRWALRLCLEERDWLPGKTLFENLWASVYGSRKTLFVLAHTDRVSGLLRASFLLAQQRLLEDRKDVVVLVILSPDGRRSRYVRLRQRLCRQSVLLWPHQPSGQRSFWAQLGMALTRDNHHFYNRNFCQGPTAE

human TLR8 = human TLR8 (Homo sapiens (Human), UniProt Q9NR97); test: TLR8 inhibition reporter assay (HEK-Blue cells, SEAP reporter, R848 stimulation);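 also: compounds tested from 0.05 nM to 50 µM, 22 h at 37 °C, SEAP measured with HEK-Blue Detection, inhibition relative to agonist plus DMSO versus a known inhibitor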
Sequence of human TLR8 (Q9NR97 27-1041): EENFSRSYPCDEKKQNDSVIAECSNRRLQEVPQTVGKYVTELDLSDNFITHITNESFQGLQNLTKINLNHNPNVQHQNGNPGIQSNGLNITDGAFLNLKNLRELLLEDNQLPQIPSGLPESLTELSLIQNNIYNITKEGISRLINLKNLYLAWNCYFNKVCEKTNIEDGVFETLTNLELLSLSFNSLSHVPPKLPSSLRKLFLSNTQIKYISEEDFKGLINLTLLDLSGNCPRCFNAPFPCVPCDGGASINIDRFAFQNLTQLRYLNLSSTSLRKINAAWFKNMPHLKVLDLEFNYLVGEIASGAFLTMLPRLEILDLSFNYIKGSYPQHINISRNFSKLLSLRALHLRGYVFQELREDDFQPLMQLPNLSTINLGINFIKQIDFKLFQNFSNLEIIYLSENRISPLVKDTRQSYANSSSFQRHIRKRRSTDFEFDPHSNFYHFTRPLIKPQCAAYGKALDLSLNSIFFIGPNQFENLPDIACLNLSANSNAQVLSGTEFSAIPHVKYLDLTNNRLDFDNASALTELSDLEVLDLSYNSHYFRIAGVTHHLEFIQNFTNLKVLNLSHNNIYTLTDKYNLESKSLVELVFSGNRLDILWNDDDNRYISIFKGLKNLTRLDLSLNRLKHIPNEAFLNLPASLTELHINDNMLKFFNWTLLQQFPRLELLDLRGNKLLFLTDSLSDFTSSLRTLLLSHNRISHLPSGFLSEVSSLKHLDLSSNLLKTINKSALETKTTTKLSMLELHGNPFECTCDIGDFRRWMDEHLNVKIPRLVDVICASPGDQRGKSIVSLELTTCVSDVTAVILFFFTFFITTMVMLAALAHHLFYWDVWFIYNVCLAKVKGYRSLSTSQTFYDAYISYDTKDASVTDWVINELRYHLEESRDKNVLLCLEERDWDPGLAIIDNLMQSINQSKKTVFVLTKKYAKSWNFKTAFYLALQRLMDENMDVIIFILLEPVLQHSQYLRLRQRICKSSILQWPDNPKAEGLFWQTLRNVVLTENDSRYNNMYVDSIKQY

[1] = HEK-Blue cells overexpressing human TLR7, gardiquimod 7.5 μM
[2] = read-out: TLR9 IC50, HEK-Blue cells overexpressing human TLR9, ODN2006 5 nM
[3] = read-out: TLR8 IC50, HEK-Blue cells overexpressing human TLR8, R848 15.9 μM
[4] = HEK-Blue cells, gardiquimod 7.5 μM
[5] = read-out: TLR9 IC50, HEK-Blue cells, ODN2006 5 nM
[6] = read-out: TLR8 IC50, HEK-Blue cells, R848 15.9 μM
[7] = TLR9 IC50, HEK-Blue cells overexpressing human TLR9, ODN2006 5 nM
[8] = TLR8 IC50, HEK-Blue cells overexpressing human TLR8, R848 15.9 μM

Sequence of human TLR7 (Q9NYK1 27-1049): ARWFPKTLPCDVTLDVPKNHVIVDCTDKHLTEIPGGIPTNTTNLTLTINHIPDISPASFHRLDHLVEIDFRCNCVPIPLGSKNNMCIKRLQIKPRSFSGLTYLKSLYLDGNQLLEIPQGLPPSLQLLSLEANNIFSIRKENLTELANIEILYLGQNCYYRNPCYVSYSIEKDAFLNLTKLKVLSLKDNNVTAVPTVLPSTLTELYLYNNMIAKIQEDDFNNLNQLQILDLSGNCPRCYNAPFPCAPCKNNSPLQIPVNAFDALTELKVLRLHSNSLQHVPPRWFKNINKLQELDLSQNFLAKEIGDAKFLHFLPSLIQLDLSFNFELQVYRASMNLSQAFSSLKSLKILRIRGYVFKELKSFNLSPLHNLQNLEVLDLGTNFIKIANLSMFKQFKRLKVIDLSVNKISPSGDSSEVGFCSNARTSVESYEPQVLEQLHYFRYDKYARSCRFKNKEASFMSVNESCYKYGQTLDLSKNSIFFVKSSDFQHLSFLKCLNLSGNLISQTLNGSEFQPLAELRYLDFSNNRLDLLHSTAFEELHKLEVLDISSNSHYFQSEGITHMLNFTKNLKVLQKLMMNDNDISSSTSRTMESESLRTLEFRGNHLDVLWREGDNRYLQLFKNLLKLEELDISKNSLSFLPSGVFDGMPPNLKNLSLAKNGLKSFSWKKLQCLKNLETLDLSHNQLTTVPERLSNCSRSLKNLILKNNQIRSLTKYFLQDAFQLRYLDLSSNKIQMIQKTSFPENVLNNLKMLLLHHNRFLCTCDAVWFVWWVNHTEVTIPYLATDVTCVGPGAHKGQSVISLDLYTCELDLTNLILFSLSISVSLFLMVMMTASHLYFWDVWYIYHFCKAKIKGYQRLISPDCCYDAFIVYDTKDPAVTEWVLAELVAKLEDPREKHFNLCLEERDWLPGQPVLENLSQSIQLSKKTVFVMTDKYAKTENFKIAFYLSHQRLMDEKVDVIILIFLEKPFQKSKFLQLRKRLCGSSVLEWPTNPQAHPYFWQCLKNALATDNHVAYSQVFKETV

Compound	IC50 (human TLR7; [1]) [nM]	IC50 (human TLR9; [2]) [nM]	IC50 (human TLR8; [3]) [nM]	IC50 (human TLR7; [4]) [nM]	IC50 (human TLR9; [5]) [nM]	IC50 (human TLR8; [6]) [nM]	IC50 (human TLR9; [7]) [nM]	IC50 (human TLR8; [8]) [nM]
Cc1cc(-c2[nH]c3ccc(C4CCN(CC(=O)N(C)C)CC4)cc3c2C(C)C)c(F)cn1 [Example 643, 2-(4-(2-(5-fluoro-2-methylpyridin-4-yl)-3-isopropyl-1H-indol-5-yl)piperidin-1-yl)-N,N-dimethylacetamide]	4.5	4400	4.7	–	–	–	–	–
Cc1cc(-c2[nH]c3ccc(C4CCN(CC(F)F)CC4)cc3c2C(C)C)ccn1 [Example 660, 5-(1-(2,2-difluoroethyl)piperidin-4-yl)-3-isopropyl-2-(2-methylpyridin-4-yl)-1H-indole]	104	> 50000	78.9	–	–	–	–	–
CCC(C)CN(CCO)CC(=O)N1CCC(c2ccc3[nH]c(-c4cc(C)nc(C)c4)c(C(C)C)c3c2)CC1 (stereo not drawn) [Example 406, 1-(4-(2-(2,6-dimethylpyridin-4-yl)-3-isopropyl-1H-indol-5-yl)piperidin-1-yl)-2-((2-hydroxyethyl)(2-methylbutyl)amino)ethan-1-one]	7.8	1070	73.8	–	–	–	–	–
CC(=O)N1CCC(c2ccc3[nH]c(-c4cc(C)nc(C)c4)c(C(C)C)c3c2)CC1 [Example 174, 1-(4-(2-(2,6-dimethylpyridin-4-yl)-3-isopropyl-1H-indol-5-yl)piperidin-1-yl)ethan-1-one]	5.5	35100	81.1	–	–	–	–	–
Cc1cc(-c2[nH]c3ccc(C4CCN(C(=O)[C@@H](N)Cc5c[nH]cn5)CC4)cc3c2C(C)C)ccn1 [Example 574, (S)-2-amino-3-(1H-imidazol-4-yl)-1-(4-(3-isopropyl-2-(2-methylpyridin-4-yl)-1H-indol-5-yl)piperidin-1-yl)propan-1-one]	82.9	851	15.6	–	–	–	–	–
Cc1cc(-c2[nH]c3ccc(C4CCN(C(C)C)CC4)cc3c2C(C)C)ccn1 [Example 869, 3-isopropyl-5-(1-isopropylpiperidin-4-yl)-2-(2-methylpyridin-4-yl)-1H-indole]	–	–	–	13.2	803	12.3	–	–
CCc1c(-c2ccnc(C)c2)[nH]c2ccc(C3CCN(C(=O)CCC4CCNCC4)CC3)cc12 [Example 632, 1-(4-(3-ethyl-2-(2-methylpyridin-4-yl)-1H-indol-5-yl)piperidin-1-yl)-3-(piperidin-4-yl)propan-1-one]	91.8	795	35.8	–	–	–	–	–
Cc1cc(-c2[nH]c3ccc(C4CCN(C(=O)CNC[C@@H](O)CO)CC4)cc3c2C(C)C)ccn1 [Example 511, (R)-2-((2,3-dihydroxypropyl)amino)-1-(4-(3-isopropyl-2-(2-methylpyridin-4-yl)-1H-indol-5-yl)piperidin-1-yl)ethan-1-one]	32.6	1460	31.3	–	–	–	–	–
Cc1cc(-c2[nH]c3ccc(C4CCN(C(=O)C(=O)N(C)C)CC4)cc3c2C(C)C)ccn1 [Example 878, 2-(4-(3-isopropyl-2-(2-methylpyridin-4-yl)-1H-indol-5-yl)piperidin-1-yl)-N,N-dimethyl-2-oxoacetamide]	–	–	–	55.1	28000	175	–	–
Cc1cc(-c2[nH]c3ccc(C4CCN(C(=O)CN(C)CC(O)c5ccccc5)CC4)cc3c2C(C)C)cc(C)n1 (stereo not drawn) [Example 399, 1-(4-(2-(2,6-dimethylpyridin-4-yl)-3-isopropyl-1H-indol-5-yl)piperidin-1-yl)-2-((2-hydroxy-2-phenylethyl)(methyl)amino)ethan-1-one]	6.1	688	66.9	–	–	–	–	–
Cc1cc(-c2[nH]c3ccc(C4CCN(C(=O)C5CCN(C(C)C)CC5)CC4)cc3c2C(C)C)cc(C)n1 [Example 497, (4-(2-(2,6-dimethylpyridin-4-yl)-3-isopropyl-1H-indol-5-yl)piperidin-1-yl)(1-isopropylpiperidin-4-yl)methanone]	2.7	266	13.1	–	–	–	–	–
CCc1c(-c2ccnc(OC)c2)[nH]c2ccc(C3CCN(C4CCN(CC)CC4)CC3)cc12 [Example 792, 3-ethyl-5-(1′-ethyl-[1,4′-bipiperidin]-4-yl)-2-(2-methoxypyridin-4-yl)-1H-indole]	304	686	84.9	–	–	–	–	–
Cc1cc(-c2[nH]c3ccc(C4CCN(CC(=O)N[C@H](CO)CC(C)C)CC4)cc3c2C(C)C)cc(C)n1 [Example 276, (S)-2-(4-(2-(2,6-dimethylpyridin-4-yl)-3-isopropyl-1H-indol-5-yl)piperidin-1-yl)-N-(1-hydroxy-4-methylpentan-2-yl)acetamide]	6.3	853	18.6	–	–	–	–	–
Cc1cc(-c2[nH]c3ccc(C4CCN(CC(=O)NCC(C)(C)C)CC4)cc3c2C(C)C)cc(C)n1 [Example 219, 2-(4-(2-(2,6-dimethylpyridin-4-yl)-3-isopropyl-1H-indol-5-yl)piperidin-1-yl)-N-neopentylacetamide]	22.5	–	–	–	–	–	2250	47.7
Cc1cc(-c2[nH]c3ccc(C4CCN(C5CC(C)OC(C)C5)CC4)cc3c2C(C)C)cc(C)n1 (stereo not drawn) [Example 454, 2-(2,6-dimethylpyridin-4-yl)-5-(1-(2,6-dimethyltetrahydro-2H-pyran-4-yl)piperidin-4-yl)-3-isopropyl-1H-indole]	11	358	10.2	–	–	–	–	–
COc1cc(-c2[nH]c3ccc(C4CCN(C5CCN(C6CCCC6)CC5)CC4)cc3c2C(C)C)ccn1 [Example 802, 5-(1′-cyclopentyl-[1,4′-bipiperidin]-4-yl)-3-isopropyl-2-(2-methoxypyridin-4-yl)-1H-indole]	389	487	99.3	–	–	–	–	–
CCc1c(-c2cc(C)nc(C)c2)[nH]c2ccc(C3CCN(CC(=O)NC)CC3)cc12 [Example 527, 2-(4-(2-(2,6-dimethylpyridin-4-yl)-3-ethyl-1H-indol-5-yl)piperidin-1-yl)-N-methylacetamide]	54.1	608	63.6	–	–	–	–	–
Cc1cc(-c2[nH]c3ccc(C4CCN(Cc5ccn[nH]5)CC4)cc3c2C(C)C)c(F)cn1 [Example 682, 5-(1-((1H-pyrazol-5-yl)methyl)piperidin-4-yl)-2-(5-fluoro-2-methylpyridin-4-yl)-3-isopropyl-1H-indole]	7.5	2720	1.7	–	–	–	–	–
COc1cc(-c2[nH]c3ccc(C4CCN(C)CC4)cc3c2C(C)C)ccn1 [Example 638, 3-isopropyl-2-(2-methoxypyridin-4-yl)-5-(1-methylpiperidin-4-yl)-1H-indole]	15.6	3300	55.1	–	–	–	–	–
Cc1cc(-c2[nH]c3ccc(C4CCN(CC5(C)COC5)CC4)cc3c2C(C)C)ccn1 [Example 867, 3-isopropyl-5-(1-((3-methyloxetan-3-yl)methyl)piperidin-4-yl)-2-(2-methylpyridin-4-yl)-1H-indole]	–	–	–	16.3	794	3.7	–	–
CCc1c(-c2ccnc(N)c2)[nH]c2ccc(C3CCN(C4CCN(CC(C)C)CC4)CC3)cc12 [Example 773, 4-(3-ethyl-5-(1′-isobutyl-[1,4′-bipiperidin]-4-yl)-1H-indol-2-yl)pyridin-2-amine]	613	45	114	–	–	–	–	–
Cc1cc(-c2[nH]c3ccc(C4CCN(C5COC5)CC4)cc3c2C(C)C)cc(C)n1 [Example 452, 2-(2,6-dimethylpyridin-4-yl)-3-isopropyl-5-(1-(oxetan-3-yl)piperidin-4-yl)-1H-indole]	4.9	1390	16.7	–	–	–	–	–
Cc1cc(-c2[nH]c3ccc(C4CCN(CC(=O)N5CCC[C@H]5CO)CC4)cc3c2C(C)C)cc(C)n1 [Example 274, (S)-2-(4-(2-(2,6-dimethylpyridin-4-yl)-3-isopropyl-1H-indol-5-yl)piperidin-1-yl)-1-(2-(hydroxymethyl)pyrrolidin-1-yl)ethan-1-one]	1.9	261	9.1	–	–	–	–	–
Cc1cc(-c2[nH]c3ccc(C4CCN(CC(=O)N(C)C(C)C)CC4)cc3c2C(C)C)cc(C)n1 [Example 244, 2-(4-(2-(2,6-dimethylpyridin-4-yl)-3-isopropyl-1H-indol-5-yl)piperidin-1-yl)-N-isopropyl-N-methylacetamide]	8.2	–	–	–	–	–	990	20.3
CCc1c(-c2ccnc(-c3nnc[nH]3)c2)[nH]c2ccc(C3CCNCC3)cc12 [Example 66, 2-(2-(4H-1,2,4-triazol-3-yl)pyridin-4-yl)-3-ethyl-5-(piperidin-4-yl)-1H-indole]	1230	554	159	–	–	–	–	–
Cc1cc(-c2[nH]c3ccc(C4CCNCC4)cc3c2C(C)C)cc(N2CCN(C)CC2)n1 [Example 480, 3-isopropyl-2-(2-methyl-6-(4-methylpiperazin-1-yl)pyridin-4-yl)-5-(piperidin-4-yl)-1H-indole]	2880	707	7060	–	–	–	–	–
Cc1cc(-c2[nH]c3ccc(C4CCN(CC5CN(Cc6ccccc6)CCO5)CC4)cc3c2C(C)C)cc(C)n1 (stereo not drawn) [Example 320, 4-benzyl-2-((4-(2-(2,6-dimethylpyridin-4-yl)-3-isopropyl-1H-indol-5-yl)piperidin-1-yl)methyl)morpholine]	18.2	192	21.8	–	–	–	–	–
Cc1cc(-c2[nH]c3ccc(C4CCN(C(=O)CNCC5(C)CC5)CC4)cc3c2C(C)C)cc(C)n1 [Example 365, 1-(4-(2-(2,6-dimethylpyridin-4-yl)-3-isopropyl-1H-indol-5-yl)piperidin-1-yl)-2-(((1-methylcyclopropyl)methyl)amino)ethan-1-one]	6.5	–	–	–	–	–	854	22.9

— patent US10660877B2 (BRISTOL-MYERS SQUIBB COMPANY, priority 2016, dated 2020)
